# From US20050197364A1, “Amide compounds as ion channel ligands and uses thereof” (priority 2003, published 2005)
# What was measured:
# thermal hyperalgesia = experiment: Thermal hyperalgesia (carrageenan, latency of paw withdrawal); format: in vivo, rat; settings: rats, 30 mg/kg, two hours after dosing, FIG. 6
# Experimental: Sprague-Dawley male rats obtained from Charles River, San Diego, Calif. were purchased at 150-175 g, and held for at least one week before testing. Pain was induced by injecting 100 μl of 2% carrageenan in 0.9% saline sub-Q into the right ventral hindpaw while the animals were under isofluorane anesthesia. Animals were then dosed one hour after with different concentrations of Compound 18 (3, 10, and 30 mg/kg). Two hours later, after acclimatizing in testing chambers for 20-30 minutes, animals were tested on both hindpaws for latency of paw withdrawal using a thermal testing apparatus. 2-3 trials were conducted with 10 minutes between trials. […] The figure depicts the time in seconds until animals withdraw from thermal stimulation at baseline and two hours after administration of delivery vehicle, control compound, and three concentrations of Compound 18.
# [1] = Pharmacokinetic profile after intravenous and oral administration; format: in vivo; settings: male, Sprague-Dawley, rat, plasma, rats, IV 1 mg/kg and oral 5 mg/kg
# Experimental: The pharmacokinetic profile of Compound 18 was evaluated following intravenous and oral administration in rats. Sprague-Dawley male rats obtained from Charles River, San Diego, Calif. were acclimated for 24 hours. Compound 18 was formulated at a concentration of 0.5 mg/mL for IV administration at a 1 mg/kg dose and 1 mg/mL for oral administration at a 5 mg/kg dose. All animals were weighed before dosing. The body weight was used to calculate the actual dose for each animal. The intravenous dose was administered through the jugular vein catheter in less than 1 minute. The oral dose volume was 1.5 ml for all PO rats administered through oral […]. […] For PO dosing, blood samples were collected using a pre-heparinized syringe via the carotid artery catheter before dosing and at t=5, 15, 30, 60, 120, 180, 360, and 480 minutes post dosing. 250 uL of blood was obtained at each time point from each animal. Equal volumes of 0.9% normal saline were replaced to prevent dehydration. The whole blood samples were maintained on ice until centrifugation. Blood samples were centrifuged at 14,000 rpm for 10 minutes at 4° C., and the upper plasma layer was transferred into a clean vial and store at −80° C. The plasma was analyzed.
# [2] = Partition coefficient Log(D), 1-octanol / pH 7.4 buffer; format: physicochemical; settings: pH 7.4, 1-octanol/buffer
# Experimental: The partition coefficient, Log(D), between water-saturated 1octanol and pH 7.4 buffer was determined for Compound 18. The pH 7.4 buffer was prepared by adjusting the pH of a 0.07 M solution of NaH2PO4 to pH 7.4 with 10 N NaOH. 15 μL of a 10 mM stock solution of test article were pipetted in duplicate, into test tubes containing 750 μL each of 1-octanol and pH 7.4 buffer. Then 3 μL of 50 mM testosterone was also added to each tube. Then the tubes were rotated for about one hour using a benchtop rotator. Following the rotation, the tubes sat on the bench top for about 1 hour to allow the layers to separate.
# Thereafter, 400 μL of the octanol (top) layer was removed and placed into a test tube. Next 400 μL of the aqueous (bottom) layer was removed and placed into a test tube. […]
# A standard curve of test article and testosterone was prepared using 50% methanol at the following concentrations: 2, 0.6, 0.2, 0.06, 0.02, 0.006, and 0.002 μM. The samples were analyzed by LC/MS monitoring both test article and testosterone. Log (D) was calculated for each duplicate sample by taking the calculated concentration of the least diluted sample for each phase that fell within the standard curve using the following equation: Log(D)=Log10(Calc. Conc. in Organic Phase/Calc. Conc. in Aqueous Phase).
# 2C9 = 2C9 (Homo sapiens, UniProt P11712); experiment: Cytochrome p450 inhibition assessment, 2C9; format: in vitro ADME; settings: concentration range tested, upper 100 μM
# Experimental: (§1) The ability of test compounds to inhibit five major human cytochrome p450 isozymes was evaluated. Cytochrome p450 inhibition assays were performed on 96-well microtiter assay plates according to the protocols described in Gentest P450 inhibition instruction manuals. The assays were performed in duplicate at 8 concentrations with the upper concentration of 100 μM followed by a 1:3 serial dilution. Reactions were initiated by the addition of 100 μL of enzyme/substrate mix to 100 μL of cofactor/serial dilution mix, and terminated by addition of 75 μL of a 4:1 acentonitrile: 0.5 M Tris base solution or by 2N NaOH for CYP3A4/DBF. Fluorescence was measured using a fluorescence plate reader (FLUOstar model 403, BMG Lab Technologies, Durham, N.C.). For reactions with inhibition greater than 50%, IC50 values were determined by fitting the data to the Hill equation using software GraphPad Prism (Version 4.02, GraphPad Software, San Diego, Calif.).
# [3] = system: pawlick response induced by capsaicin; experiment: Paw lick assay (capsaicin challenge); format: in vivo; settings: 30 mg/kg, at least 30 minutes prior to testing; FIG. 5
# Experimental: This assay was performed to test the ability of Compound 18 to inhibit the response to capsaicin challenge.
# Animals were acclimatized at least 2 days prior to testing by placing them in a behavioral chamber for one hour. On the day of testing, animals were trained for 30-60 minutes prior to dosing. Animals were dosed with 30 mg/kg of Compound 18 at least 30 minutes prior to testing and then placed in behavioral chambers for acclimatization. Animals were then placed into a falcon tube restrainer and injected with a 0.16 mg/ml capsaicin solution (or vehicle) into the plantar surface of their paw. Animals were then returned to the behavior chamber and monitored for paw licking behavior (including paw and leg licking behavior) over the next 5 minute interval.
# CYP1A2 = molecular target: T1, CYP1A2 (Homo sapiens, UniProt P05177); experiment: Cytochrome p450 inhibition assessment, CYP1A2; format: in vitro ADME; settings: estimated
# T1 sequence (P05177 1-516): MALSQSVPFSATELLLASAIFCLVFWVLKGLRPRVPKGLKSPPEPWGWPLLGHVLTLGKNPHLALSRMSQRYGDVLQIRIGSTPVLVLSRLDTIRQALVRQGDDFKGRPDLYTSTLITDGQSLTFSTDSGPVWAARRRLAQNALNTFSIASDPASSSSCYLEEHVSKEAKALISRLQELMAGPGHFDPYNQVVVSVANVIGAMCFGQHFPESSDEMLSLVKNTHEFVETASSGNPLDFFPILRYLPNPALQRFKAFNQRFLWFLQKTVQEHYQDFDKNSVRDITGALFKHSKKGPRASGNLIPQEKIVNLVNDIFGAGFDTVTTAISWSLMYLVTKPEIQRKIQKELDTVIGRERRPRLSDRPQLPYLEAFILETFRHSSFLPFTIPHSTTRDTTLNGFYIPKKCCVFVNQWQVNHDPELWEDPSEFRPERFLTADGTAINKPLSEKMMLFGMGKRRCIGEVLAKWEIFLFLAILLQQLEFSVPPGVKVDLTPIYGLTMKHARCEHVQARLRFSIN
# Experimental: as §1
# Chain of 2C9 (P11712 whole entry): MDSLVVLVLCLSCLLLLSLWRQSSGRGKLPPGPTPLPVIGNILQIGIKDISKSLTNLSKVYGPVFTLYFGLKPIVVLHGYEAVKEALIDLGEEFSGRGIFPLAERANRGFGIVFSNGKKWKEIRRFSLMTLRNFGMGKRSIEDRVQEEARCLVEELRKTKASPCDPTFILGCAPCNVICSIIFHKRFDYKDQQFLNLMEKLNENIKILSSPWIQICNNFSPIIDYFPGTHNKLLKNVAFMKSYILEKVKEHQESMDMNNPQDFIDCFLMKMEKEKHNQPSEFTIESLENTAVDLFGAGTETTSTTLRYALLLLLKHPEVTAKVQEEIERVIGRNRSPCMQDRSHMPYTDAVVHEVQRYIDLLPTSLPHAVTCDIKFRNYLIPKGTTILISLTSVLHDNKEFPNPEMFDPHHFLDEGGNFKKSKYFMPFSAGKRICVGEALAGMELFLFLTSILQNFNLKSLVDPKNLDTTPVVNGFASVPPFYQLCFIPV
smiles,measurement,setting,value
"O=C(Nc1ccc(C(F)(F)F)cc1)c1ccc(-c2ncccc2Cl)cc1 [Compound 18, 4-(3-Chloropyridin-2-yl)-N-(4-trifluoromethyl-phenyl)benzamide]",latency of paw withdrawal (reversal of thermal hyperalgesia),thermal hyperalgesia,significantly increased
same,Cmax,[1],1750 nM
same,Tmax,[1],3 h
same,clearance,[1]; read-out: Clearance (Cl) (converted),8.83 mL/min/kg
same,bioavailability,[1]; read-out: Oral Bioavailability (%F),30.1%
same,Vd,[1]; read-out: Volume of distribution (Vd),2.82 L/kg
same,half-life,[1]; read-out: half life (t1/2) (converted),3.71 h
same,Log (D),[2],less than 4.7
same,inhibition of 2C9 activity,2C9,did not significantly inhibit
same,pawlick response induced by treatment with capsaicin,[3],significantly inhibited
same,IC50,CYP1A2,97.5 µM
